Reference: patent publication US20240277583A1, “Micellar Mouthwash Composition” (Colgate-Palmolive Company, priority 2022, published 2024)

Legend:
[1] = Colloid particle (micelle) size by dynamic light scattering; format: physicochemical; details: colloid particle diameter
Text: Next, the colloid particle (micelle) size in Formulations A and B as well as Elmex mouthwash is examined.
In contrast, the micelle size of Formulation B is around 14.1 nm, close to that of PEG-40 hydrogenated castor oil (16.0 nm). Although the inflection point of the surface tension curve is not obvious in the Elmex mouthwash, dynamic light scattering detects colloid particles with 12.2 nm diameter, which are likely solubilized oil droplets in the mouthwash product. With the smallest particle size (amine fluoride/coco glucoside<amine fluoride<amine fluoride/PEG-40 hydrogenated castor oil), amine fluoride/cocoyl glucoside complex is most mobile and can likely reach smaller spaces that others cannot reach. This feature would likely enhance the delivery of active encapsulated in the micelle core, and also enhance availability of amine fluoride, therefore improving its antibacterial efficacy.

[2] = Diffusion rate D determined by NMR; format: physicochemical

Micelle size (nm) mean [1]: 6.6 nm
D in individual solution ([2]; ingredient alone in solution): 4.84 × 10^−6 cm^2/s
D in Formulation A ([2]; ingredient within Formulation A (Olaflur + coco glucoside)): 2.27 × 10^−6 cm^2/s
D in Formulation B ([2]; ingredient within Formulation B (Olaflur + PEG-40 hydrogenated castor oil)): 4.33 × 10^−6 cm^2/s
Compound: CCCCCCCCCCCCCCCCCCN(CCO)CCCN(CCO)CCO.F.F [Olaflur, N′-octadecyltrimethylenediamine-N,N,N′-tris(2-ethanol)-dihydrofluoride]
